Values of other authors, collected in article PMC3138524 (European journal of pharmacology, 2011).
Positions of bridges follow the written chain, without caps; N, C: chain ends. Non-standard residues stand in square brackets, D forms with d. d2Nal = N[C@H](Cc1ccc2ccccc2c1)C(=O)O; Pen = CC(C)(S)[C@H](N)C(=O)O; Nle = CCCC[C@H](N)C(=O)O

Assays:
Type in all cases: cell-based, HEK293
MC5R [1] = target: T1, MC5R (Homo sapiens, UniProt P33032); conditions: read-out: Functional Assays cAMP EC50; n = 2
MC4R [2] = target: T2, MC4R (Homo sapiens, UniProt P32245); conditions: read-out: Functional Assays cAMP EC50; n = 2
MC3R [3] = target: T3, MC3R (Homo sapiens, UniProt P41968); conditions: read-out: Binding Affinities IC50; n = 2
MC4R [4] = target: T2, MC4R; conditions: read-out: Binding Affinities IC50; n = 2
MC5R [5] = target: T1, MC5R; conditions: read-out: Binding Affinities IC50; n = 2
MC3R [6] = target: T3, MC3R; conditions: read-out: Functional Assays cAMP EC50; n = 2

T1 sequence (P33032 whole entry): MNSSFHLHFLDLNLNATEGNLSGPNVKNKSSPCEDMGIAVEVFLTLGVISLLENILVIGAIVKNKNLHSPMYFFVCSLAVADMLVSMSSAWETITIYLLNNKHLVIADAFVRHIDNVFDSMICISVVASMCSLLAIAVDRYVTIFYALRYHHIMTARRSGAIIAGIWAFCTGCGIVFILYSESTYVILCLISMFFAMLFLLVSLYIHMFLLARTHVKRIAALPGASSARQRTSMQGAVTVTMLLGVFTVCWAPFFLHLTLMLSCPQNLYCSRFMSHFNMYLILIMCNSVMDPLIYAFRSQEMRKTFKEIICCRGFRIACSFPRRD
T2 sequence (P32245 whole entry): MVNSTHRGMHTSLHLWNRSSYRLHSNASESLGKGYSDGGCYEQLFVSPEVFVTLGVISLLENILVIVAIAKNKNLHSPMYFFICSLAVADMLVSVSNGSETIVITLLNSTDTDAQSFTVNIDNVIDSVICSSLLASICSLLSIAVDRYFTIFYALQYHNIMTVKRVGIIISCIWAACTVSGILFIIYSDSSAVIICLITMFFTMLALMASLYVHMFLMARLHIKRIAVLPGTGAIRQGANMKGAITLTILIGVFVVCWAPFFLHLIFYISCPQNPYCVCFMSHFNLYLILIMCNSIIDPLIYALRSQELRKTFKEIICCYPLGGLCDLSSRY
T3 sequence (P41968 whole entry): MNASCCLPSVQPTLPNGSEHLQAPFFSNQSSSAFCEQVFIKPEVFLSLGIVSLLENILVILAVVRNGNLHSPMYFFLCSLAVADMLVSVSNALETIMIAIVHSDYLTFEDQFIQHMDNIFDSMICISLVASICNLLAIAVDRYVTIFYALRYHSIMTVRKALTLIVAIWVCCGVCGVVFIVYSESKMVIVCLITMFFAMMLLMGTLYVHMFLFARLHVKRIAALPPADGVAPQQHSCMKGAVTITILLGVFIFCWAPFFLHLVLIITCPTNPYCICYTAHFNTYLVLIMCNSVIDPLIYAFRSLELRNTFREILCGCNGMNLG

| Compound | EC50 (MC5R [1]) [nM] | EC50 (MC4R [2]) [nM] | IC50 (MC3R [3]) [nM] | IC50 (MC4R [4]) [nM] | further results |
| --- | --- | --- | --- | --- | --- |
| Ac-Nle-c[Asp-Aba-D-Phe-Arg-Trp-Lys]-NH2 [compound 4] |  |  | 50 |  |  |
| Ac-[Nle][Pen]EH[d2Nal]RWCPKD-NH2 (disulfide 2-8) [compound 5] |  |  | 3 |  |  |
| Ac-c[Cys-His-D-Phe-Cys]-N^α-Gubu-D-Trp-NH2 [compound 7] |  | > 1000 |  | 0.7 |  |
| Ac-c[Cys-His-D-Phe-N^α-Gubu-Cys]-Trp-NH2 [compound 6] |  |  |  | 1.8 |  |

Continued, in another order:

| EC50 (MC5R [1]) [nM] | EC50 (MC4R [2]) [nM] | IC50 (MC3R [3]) [nM] | IC50 (MC4R [4]) [nM] | Compound | further results |
| --- | --- | --- | --- | --- | --- |
| > 1000 | > 10000 |  |  | N=C(N)NCCC[C@@H]1NC(=O)[C@@H](Cc2ccccc2)NC(=O)[C@@H]2CCCN2C(=O)[C@@H](NC(=O)[C@H](N)Cc2ccccc2)CC(=O)NCCCC[C@@H](C(N)=O)NC(=O)[C@H](Cc2c[nH]c3ccccc23)NC1=O [compound 3, D-Phe-c[Asp-Pro-D-Phe-Arg-Trp-Lys]-NH2] |  |
| > 10000 |  | 0.84 |  | Tyr-Val-Nle-Gly-His-D-Nal(2′)-Arg-Trp-Asp-Arg-Phe-Gly-NH2 [compound 1] | IC50 (MC5R [5]): 1 nM; EC50 (MC3R [6]): > 10000 nM |
